Here are results for 19 compounds from ChEMBL document CHEMBL1153871, “Antiplasmodial and antitrypanosomal activities of aminobicyclo[2.2.2]octyl omega-aminoalkanoates” (Eur J Med Chem, 2009).

Some results are limits rather than exact numbers.

For one data set, the system named is L6. Nature of the data set: Cytotoxicity against rat L6 cells. Type of data set: cell-based.
In data set [1] the test system is Trypanosoma brucei rhodesiense. Nature of the data set: Antitrypanosomal activity against Trypanosoma brucei rhodesiense STIB900 by microplate assay. The class given is functional, organism-based.
The test system of a further data set is Plasmodium falciparum. Briefly: Antimalarial activity against chloroquine and pyrimethamine-resistant Plasmodium falciparum K1. Type of data set: functional, organism-based.
Data set [2] in a line: Selectivity index, ratio of IC50 for rat L6 cells to IC50 for Trypanosoma brucei rhodesiense STIB900. The class given is toxicity, cell-based. The note with it: read-out: Ratio IC50.

On to `CCN(CC)CCC(=O)OC1CC2(N3CCCCC3)CC(c3ccccc3)C1C(c1ccccc1)C2` (racemic), for which the concentration for half-maximal inhibition (IC50) was 22.9 µM in the data set on L6 (Rattus norvegicus, L6); 0.15 µM in data set [1] (Trypanosoma brucei, STIB900); 0.19 µM with Plasmodium falciparum (Plasmodium falciparum, K1).
For `O=C(CCN1CCCCC1)OC1CC2(N3CCCCC3)CC(c3ccccc3)C1C(c1ccccc1)C2` (racemic), the IC50 with L6 (Rattus norvegicus, L6) worked out at 54.6 µM; in data set [1] (Trypanosoma brucei, STIB900), 0.91 µM; in the data set with Plasmodium falciparum (Plasmodium falciparum, K1) it was 0.26 µM.
Taken in the same sequence, the figures for `O=C(CCN1CCC(O)CC1)OC1CC2(N3CCCCC3)CC(c3ccccc3)C1C(c1ccccc1)C2` (racemic) were 28.5 µM, 0.98 µM and 0.17 µM.
Take `O=C(CN1CCC(O)CC1)OC1CC2(N3CCCC3)CC(c3ccccc3)C1C(c1ccccc1)C2` (racemic): the IC50 with L6 (Rattus norvegicus, L6) turned out to be 93.4 µM; in data set [1] (Trypanosoma brucei, STIB900) it was 1.05 µM; in the data set with Plasmodium falciparum (Plasmodium falciparum, K1), 0.86 µM.
The corresponding values for `CCN(CC)CCC(=O)OC1CC2(N(C)C)CC(c3ccccc3)C1C(c1ccccc1)C2` (racemic) are 23.6 µM, 0.11 µM and 0.43 µM.
As for `CN(C)C12CC(OC(=O)CCN3CCC(O)CC3)C(C(c3ccccc3)C1)C(c1ccccc1)C2` (racemic), the IC50 worked out at 89.2 µM in the data set with L6 (Rattus norvegicus, L6); 0.95 µM in data set [1] (Trypanosoma brucei, STIB900); 2.25 µM in the data set with Plasmodium falciparum (Plasmodium falciparum, K1).
Regarding `CN(C)C12CC(OC(=O)CN3CCC(O)CC3)C(C(c3ccccc3)C1)C(c1ccccc1)C2` (racemic), the IC50 in the data set with L6 (Rattus norvegicus, L6) came out at 102 µM; in data set [1] (Trypanosoma brucei, STIB900), 2.06 µM; in the data set on Plasmodium falciparum (Plasmodium falciparum, K1), 2.16 µM.
Consider `O=C(CN1CCCCC1)OC1CC2(N3CCCCC3)CC(c3ccccc3)C1C(c1ccccc1)C2` (racemic), for which the IC50 in the data set on L6 (l6) is more than 185 µM; in data set [1] it was 5.42 µM; in the data set on Plasmodium falciparum it was 1.41 µM.
For the compound `O=C(CCN1CCC(O)CC1)OC1CC2(N3CCCC3)CC(c3ccccc3)C1C(c1ccccc1)C2` (racemic), the IC50 was 35.6 µM in the data set with L6 (Rattus norvegicus, L6); 1.43 µM in data set [1] (Trypanosoma brucei, STIB900); 1.91 µM in the data set with Plasmodium falciparum (Plasmodium falciparum, K1).
Taken in the same sequence, the figures for `O=C(CCN1CCCC1)OC1CC2(N3CCCC3)CC(c3ccccc3)C1C(c1ccccc1)C2` (racemic) were 21.9 µM, 0.12 µM and 0.37 µM.
Regarding `CN(C)C12CC(OC(=O)CCN3CCCCC3)C(C(c3ccccc3)C1)C(c1ccccc1)C2` (racemic), the IC50 in the data set with L6 (Rattus norvegicus, L6) came to 25.8 µM; in data set [1] (Trypanosoma brucei, STIB900), 0.21 µM; in the data set on Plasmodium falciparum (Plasmodium falciparum, K1), 0.4 µM.
In the case of `CCN(CC)CC(=O)OC1CC2(N3CCCCC3)CC(c3ccccc3)C1C(c1ccccc1)C2` (racemic), the IC50 was determined as 61.3 µM in the data set on L6 (l6), 1.53 µM in data set [1] and 0.77 µM in the data set with Plasmodium falciparum.
For `CCN(CC)CCC(=O)OC1CC2(N3CCCC3)CC(c3ccccc3)C1C(c1ccccc1)C2` (racemic), the IC50 with L6 (Rattus norvegicus, L6) stood at 19.2 µM; in data set [1] (Trypanosoma brucei, STIB900), 0.11 µM; in the data set with Plasmodium falciparum (Plasmodium falciparum, K1), 0.3 µM.
On to `O=C(CN1CCC(O)CC1)OC1CC2(N3CCCCC3)CC(c3ccccc3)C1C(c1ccccc1)C2` (racemic), for which the IC50 was more than 179 µM in the data set with L6 (Rattus norvegicus, L6) and 3.81 µM in data set [1] (Trypanosoma brucei, STIB900).
As to `O=C(CCN1CCCC1)OC1CC2(N3CCCCC3)CC(c3ccccc3)C1C(c1ccccc1)C2` (racemic), the IC50 in the data set with L6 (Rattus norvegicus, L6) amounted to 12.5 µM; in data set [1] (Trypanosoma brucei, STIB900) it was 0.38 µM; in the data set on Plasmodium falciparum (Plasmodium falciparum, K1), 0.25 µM.
Regarding `Nc1nc(N)nc(Nc2ccc([As]3SCC(CO)S3)cc2)n1` (stereo not given) [MELARSOPROL], the midpoint of inhibition in data set [1] (Trypanosoma brucei, STIB900), the IC50, lay at 0.005 µM.
With `CN(C)C12CC(OC(=O)CCN3CCCC3)C(C(c3ccccc3)C1)C(c1ccccc1)C2` (racemic), the IC50 with L6 (Rattus norvegicus, L6) is 25.9 µM; in data set [1] (Trypanosoma brucei, STIB900), 0.076 µM; with Plasmodium falciparum (Plasmodium falciparum, K1) it was 0.55 µM. Moreover, the selectivity ratio in data set [2] stood at 341.
As for `O=C(CN1CCCC1)OC1CC2(N3CCCCC3)CC(c3ccccc3)C1C(c1ccccc1)C2` (racemic), the concentration for half-maximal inhibition (IC50) with L6 (l6) came to 52 µM; in data set [1] it was 0.88 µM; in the data set with Plasmodium falciparum, 0.74 µM.
As to `O=C(CCN1CCCCC1)OC1CC2(N3CCCC3)CC(c3ccccc3)C1C(c1ccccc1)C2` (racemic), the IC50 in the data set on L6 (Rattus norvegicus, L6) was found to be 17.8 µM; in data set [1] (Trypanosoma brucei, STIB900), 0.31 µM; in the data set on Plasmodium falciparum (Plasmodium falciparum, K1) it was 0.28 µM.

In general, IC50 refers to the concentration that inhibits the measured activity by half. Higher therefore signals lower potency.
